The text below walks through data of paper PMC8511016, “Src acts as the target of matrine to inhibit the proliferation of cancer cells by regulating phosphorylation signaling pathways” (Cell Death & Disease, 2021).

This assay concerns the target T1, Src (Homo sapiens, UniProt P12931).
T1 construct: recombinant GST-Src (full-length) and GST-Kinase (270–536 aa); endogenous Src in cell lysates
Briefly: matrine-bead pull-down of recombinant GST-Src/GST-Kinase competed by free matrine; CETSA and DARTS in lysates; IC50 from Src kinase activity kit in SKOV3 cells ([…] ATP). Format: binding.

SMILES strings stand for the structures.

T1 sequence (P12931 2-536): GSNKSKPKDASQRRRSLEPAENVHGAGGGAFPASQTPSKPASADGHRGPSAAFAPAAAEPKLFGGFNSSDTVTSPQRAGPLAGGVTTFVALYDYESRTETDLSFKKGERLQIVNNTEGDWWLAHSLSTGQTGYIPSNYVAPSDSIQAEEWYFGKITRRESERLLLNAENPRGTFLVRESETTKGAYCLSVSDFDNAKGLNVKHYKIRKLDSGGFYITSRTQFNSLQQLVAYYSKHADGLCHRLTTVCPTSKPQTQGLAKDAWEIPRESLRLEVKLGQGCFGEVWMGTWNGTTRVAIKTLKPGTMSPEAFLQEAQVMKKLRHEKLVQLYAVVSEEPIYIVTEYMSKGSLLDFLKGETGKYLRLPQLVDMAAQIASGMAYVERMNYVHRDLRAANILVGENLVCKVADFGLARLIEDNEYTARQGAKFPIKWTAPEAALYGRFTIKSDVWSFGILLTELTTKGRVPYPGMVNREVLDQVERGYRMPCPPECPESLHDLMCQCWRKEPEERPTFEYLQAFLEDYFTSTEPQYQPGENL

For orientation: IC50 means the midpoint of a concentration-inhibition curve. For `O=C1CCC[C@@H]2[C@H]3CCCN4CCC[C@@H](CN12)[C@@H]34` [MA, matrine], the concentration for half-maximal inhibition (IC50) was 7.37 mM.
